What all share (experiment): Bacterial growth minimal inhibitory concentration (microdilution, cation-adjusted Mueller-Hinton Broth)
Holding throughout (format): cell-based
(In general: Dilution methods test growth across graded concentrations, often in twofold steps.)

The test system of test [1] is Acinetobacter baumanii T6474. The conditions noted are these: Acinetobacter baumannii, multiply-resistant strain (in particular quinolone-resistant). The method, then: (§1) Minimal Inhibitory Concentrations (MICs; mg/L) were determined in cation-adjusted MuellerHinton Broth by a microdilution method following the description given in “Methods for Dilution Antimicrobial Susceptibility Tests for Bacteria that Grow Aerobically”, Approved standard, 7th ed., Clinical and Laboratory Standards Institute (CLSI) Document M7-A7, Wayne, Pa., USA, 2006.
(§2) All Example compounds were tested against several Gram positive and Gram negative bacteria. […] Staphylococcus aureus A798, Enterococcus faecium A949 and Acinetobacter baumanii T6474 are multiply-resistant strains (in particular quinolone-resistant), while Moraxella catarrhalis A894 is a quinolone-sensitive strain and Staphylococcus aureus ATCC29213 is a methicillin-sensitive and quinolone-sensitive strain.

Test [2] relates to Enterococcus faecium A949. The settings on record: multiply-resistant strain (in particular quinolone-resistant), read-out: MIC for E. faecium A949. The method, then:
as §1, §2

The test system of test [3] is Moraxella catarrhalis A894. The settings on record: quinolone-sensitive strain. The method, then: as §1, §2
The test system of test [4] is Staphylococcus aureus A798. The conditions noted are these: multiply-resistant strain (in particular quinolone-resistant), read-out: MIC for S. aureus A798. How it is done:
as §1, §2

Test [5] concerns Staphylococcus aureus ATCC29213. The conditions noted are these: methicillin-sensitive and quinolone-sensitive strain, read-out: MIC for S. aureus ATCC29213. How it is done: as §1, §2

In brackets after ≈: the same amount, converted by molar mass. A value given as a limit tells only on which side of the number the result lay.

By MIC is commonly meant the least concentration at which growth counts as inhibited.

Consider `O=C1COc2ccc(-n3nc(CCCN[C@@H]4Cn5c(=O)ccc6ccc(F)c4c65)oc3=O)nc2N1` [Example 8, (S)-9-fluoro-1-{3-[5-oxo-4-(3-oxo-3,4-dihydro-2H-pyrido[3,2-b][1,4]oxazin-6-yl)-4,5-dihydro-[1,3,4]oxadiazol-2-yl]-propylamino}-1,2-dihydro-pyrrolo[3,2,1-ij]quinolin-4-one], for which the MIC in test [1] stood at 0.5 µg/mL (≈ 1.05 µM); in test [2] it was 0.5 µg/mL (≈ 1.05 µM); in test [3] it was 0.125 µg/mL (≈ 0.261 µM); in test [4], 0.25 µg/mL (≈ 0.523 µM); in test [5], 0.125 µg/mL (≈ 0.261 µM).
Take `O=C1COc2ccc(-n3nc(CCCN[C@H]4Cn5c(=O)ccc6ccc(F)c4c65)oc3=O)nc2N1` [Example 9, (R)-9-fluoro-1-{3-[5-oxo-4-(3-oxo-3,4-dihydro-2H-pyrido[3,2-b][1,4]oxazin-6-yl)-4,5-dihydro-[1,3,4]oxadiazol-2-yl]-propylamino}-1,2-dihydro-pyrrolo[3,2,1-ij]quinolin-4-one]: the MIC was 1 µg/mL (≈ 2.09 µM) in test [1]; 0.5 µg/mL (≈ 1.05 µM) in test [2]; 0.125 µg/mL (≈ 0.261 µM) in test [3]; 0.25 µg/mL (≈ 0.523 µM) in test [4]; 0.125 µg/mL (≈ 0.261 µM) in test [5].
With `O=C1COc2ccc(-n3nc(CCCN[C@@H]4Cn5c(=O)cnc6ccc(F)c4c65)oc3=O)cc2N1` [Example 10, (S)-7-fluoro-6-{3-[5-oxo-4-(3-oxo-3,4-dihydro-2H-benzo[1,4]oxazin-6-yl)-4,5-dihydro-[1,3,4]oxadiazol-2-yl]-propylamino}-5,6-dihydro-pyrrolo[1,2,3-de]quinoxalin-3-one], the MIC in test [1] is 0.25 µg/mL (≈ 0.523 µM); in test [2], 0.5 µg/mL (≈ 1.05 µM); in test [3], ≤ 0.016 µg/mL; in test [4], 0.063 µg/mL (≈ 0.132 µM); in test [5], 0.031 µg/mL (≈ 0.0648 µM).
Taken in the same sequence, the figures for `O=C1COc2ccc(-n3nc(CCCN[C@@H]4Cn5c(=O)ccc6ccc(F)c4c65)oc3=O)cc2N1` [Example 11, (S)-9-fluoro-1-{3-[5-oxo-4-(3-oxo-3,4-dihydro-2H-benzo[1,4]oxazin-6-yl)-4,5-dihydro-[1,3,4]oxadiazol-2-yl]-propylamino}-1,2-dihydro-pyrrolo[3,2,1-ij]quinolin-4-one] were 0.25 µg/mL (≈ 0.524 µM), 0.25 µg/mL (≈ 0.524 µM), ≤ 0.016 µg/mL, 0.063 µg/mL (≈ 0.132 µM) and 0.031 µg/mL (≈ 0.0649 µM).
Taken in the same sequence, the figures for `O=C1COc2ccc(-n3nc(CCCN[C@H]4Cn5c(=O)ccc6ccc(F)c4c65)oc3=O)cc2N1` [Example 12, (R)-9-fluoro-1-{3-[5-oxo-4-(3-oxo-3,4-dihydro-2H-benzo[1,4]oxazin-6-yl)-4,5-dihydro-[1,3,4]oxadiazol-2-yl]-propylamino}-1,2-dihydro-pyrrolo[3,2,1-ij]quinolin-4-one] were 0.25 µg/mL (≈ 0.524 µM), 0.25 µg/mL (≈ 0.524 µM), ≤ 0.016 µg/mL, 0.031 µg/mL (≈ 0.0649 µM) and 0.031 µg/mL (≈ 0.0649 µM).
Turning to `O=C1COc2ccc(-n3nc(CCCN[C@H]4Cn5c(=O)cnc6ccc(F)c4c65)oc3=O)cc2N1` [Example 13, (R)-7-fluoro-6-{3-[5-oxo-4-(3-oxo-3,4-dihydro-2H-benzo[1,4]oxazin-6-yl)-4,5-dihydro-[1,3,4]oxadiazol-2-yl]-propylamino}-5,6-dihydro-pyrrolo[1,2,3-de]quinoxalin-3-one], the MIC in test [1] is 0.25 µg/mL (≈ 0.523 µM); in test [2] it was 0.25 µg/mL (≈ 0.523 µM); in test [3], ≤ 0.016 µg/mL; in test [4], 0.031 µg/mL (≈ 0.0648 µM); in test [5] it was 0.031 µg/mL (≈ 0.0648 µM).
Regarding `O=C1CSc2ccc(-n3nc(CCCN[C@H]4Cn5c(=O)ccc6ccc(F)c4c65)oc3=O)nc2N1` [Example 14, (R)-9-fluoro-1-{3-[5-oxo-4-(3-oxo-3,4-dihydro-2H-pyrido[3,2-b][1,4]-thiazin-6-yl)-4,5-dihydro-[1,3,4]oxadiazol-2-yl]-propylamino}-1,2-dihydro-pyrrolo[3,2,1-ij]quinolin-4-one], the MIC in test [1] was 0.25 µg/mL (≈ 0.506 µM); in test [2] it was 0.25 µg/mL (≈ 0.506 µM); in test [3], 0.031 µg/mL (≈ 0.0627 µM); in test [4], 0.031 µg/mL (≈ 0.0627 µM); in test [5] it was ≤ 0.016 µg/mL.
On to `O=C1CSc2ccc(-n3nc(CCCN[C@@H]4Cn5c(=O)ccc6ccc(F)c4c65)oc3=O)cc2N1` [Example 15, (S)-9-fluoro-1-{3-[5-oxo-4-(3-oxo-3,4-dihydro-2H-benzo[1,4]-thiazin-6-yl)-4,5-dihydro-[1,3,4]oxadiazol-2-yl]-propylamino}-1,2-dihydro-pyrrolo[3,2,1-ij]quinolin-4-one], for which the MIC was 0.125 µg/mL (≈ 0.253 µM) in test [1]; 0.063 µg/mL (≈ 0.128 µM) in test [2]; ≤ 0.016 µg/mL in test [3]; ≤ 0.016 µg/mL in test [4]; ≤ 0.016 µg/mL in test [5].
For the compound `O=C1CSc2ccc(-n3nc(CCCN[C@H]4Cn5c(=O)cnc6ccc(F)c4c65)oc3=O)nc2N1` [Example 16, (R)-7-fluoro-6-{3-[5-oxo-4-(3-oxo-3,4-dihydro-2H-pyrido[3,2-b][1,4]-thiazin-6-yl)-4,5-dihydro-[1,3,4]oxadiazol-2-yl]-propylamino}-5,6-dihydro-pyrrolo[1,2,3-de]quinoxalin-3-one], the MIC in test [1] turned out to be 0.25 µg/mL (≈ 0.505 µM); in test [2], 0.25 µg/mL (≈ 0.505 µM); in test [3], 0.063 µg/mL (≈ 0.127 µM); in test [4], 0.063 µg/mL (≈ 0.127 µM); in test [5], 0.063 µg/mL (≈ 0.127 µM).
In the case of `O=C1CSc2ccc(-n3nc(CCCN[C@@H]4Cn5c(=O)ccc6ccc(F)c4c65)oc3=O)nc2N1` [Example 17, (S)-9-fluoro-1-{3-[5-oxo-4-(3-oxo-3,4-dihydro-2H-pyrido[3,2-b][1,4]-thiazin-6-yl)-4,5-dihydro-[1,3,4]oxadiazol-2-yl]-propylamino}-1,2-dihydro-pyrrolo[3,2,1-ij]quinolin-4-one], the MIC in test [1] is 0.25 µg/mL (≈ 0.506 µM); in test [2] it was 0.25 µg/mL (≈ 0.506 µM); in test [3], 0.031 µg/mL (≈ 0.0627 µM); in test [4], 0.063 µg/mL (≈ 0.127 µM); in test [5] it was 0.031 µg/mL (≈ 0.0627 µM).
Turning to `O=C1CSc2ccc(-n3nc(CCCN[C@@H]4Cn5c(=O)cnc6ccc(F)c4c65)oc3=O)nc2N1` [Example 18, (S)-7-fluoro-6-{3-[5-oxo-4-(3-oxo-3,4-dihydro-2H-pyrido[3,2-b][1,4]-thiazin-6-yl)-4,5-dihydro-[1,3,4]oxadiazol-2-yl]-propylamino}-5,6-dihydro-pyrrolo[1,2,3-de]quinoxalin-3-one], the MIC in test [1] was 0.25 µg/mL (≈ 0.505 µM); in test [2], 0.25 µg/mL (≈ 0.505 µM); in test [3] it was ≤ 0.016 µg/mL; in test [4], 0.063 µg/mL (≈ 0.127 µM); in test [5], 0.031 µg/mL (≈ 0.0626 µM).
With `O=C1CSc2ccc(-n3nc(CCCN[C@H]4Cn5c(=O)ccc6ccc(F)c4c65)oc3=O)cc2N1` [Example 19, (R)-9-fluoro-1-{3-[5-oxo-4-(3-oxo-3,4-dihydro-2H-benzo[1,4]-thiazin-6-yl)-4,5-dihydro-[1,3,4]oxadiazol-2-yl]-propylamino}-1,2-dihydro-pyrrolo[3,2,1-ij]quinolin-4-one], the MIC in test [1] is ≤ 0.016 µg/mL; in test [2] it was 0.25 µg/mL (≈ 0.507 µM); in test [3] it was 0.031 µg/mL (≈ 0.0628 µM); in test [4], ≤ 0.016 µg/mL; in test [5] it was ≤ 0.016 µg/mL.
In the case of `O=C1CSc2ccc(-n3nc(CCCN[C@@H]4Cn5c(=O)cnc6ccc(F)c4c65)oc3=O)cc2N1` [Example 20, (S)-7-fluoro-6-{3-[5-oxo-4-(3-oxo-3,4-dihydro-2H-benzo[1,4]-thiazin-6-yl)-4,5-dihydro-[1,3,4]oxadiazol-2-yl]-propylamino}-5,6-dihydro-pyrrolo[1,2,3-de]quinoxalin-3-one], the MIC in test [1] is ≤ 0.016 µg/mL; in test [2], 0.25 µg/mL (≈ 0.506 µM); in test [3], 0.063 µg/mL (≈ 0.127 µM); in test [4], ≤ 0.016 µg/mL; in test [5], ≤ 0.016 µg/mL.
`O=C1CSc2ccc(-n3nc(CCCN[C@H]4Cn5c(=O)cnc6ccc(F)c4c65)oc3=O)cc2N1` [Example 21, (R)-7-fluoro-6-{3-[5-oxo-4-(3-oxo-3,4-dihydro-2H-benzo[1,4]-thiazin-6-yl)-4,5-dihydro-[1,3,4]oxadiazol-2-yl]-propylamino}-5,6-dihydro-pyrrolo[1,2,3-de]quinoxalin-3-one]: the MIC is ≤ 0.016 µg/mL in test [1]; 0.25 µg/mL (≈ 0.506 µM) in test [2]; 0.063 µg/mL (≈ 0.127 µM) in test [3]; ≤ 0.016 µg/mL in test [4]; ≤ 0.016 µg/mL in test [5].
For the compound `O=c1oc(CCCN[C@@H]2Cn3c(=O)ccc4ccc(F)c2c43)nn1-c1ccc2c(c1)OCCO2` [Example 22, (S)-1-{3-[4-(2,3-dihydro-benzo[1,4]dioxin-6-yl)-5-oxo-4,5-dihydro-[1,3,4]oxadiazol-2-yl]-propylamino}-9-fluoro-1,2-dihydro-pyrrolo[3,2,1-ij]quinolin-4-one], the minimal inhibitory concentration (MIC) in test [1] was 8 µg/mL (≈ 17.2 µM); in test [2] it was > 8 µg/mL; in test [3], 4 µg/mL (≈ 8.61 µM); in test [4], > 8 µg/mL; in test [5], 4 µg/mL (≈ 8.61 µM).
As to `O=c1oc(CCCN[C@H]2Cn3c(=O)ccc4ccc(F)c2c43)nn1-c1ccc2c(c1)OCCO2` [Example 23, (R)-1-{3-[4-(2,3-dihydro-benzo[1,4]dioxin-6-yl)-5-oxo-4,5-dihydro-[1,3,4]oxadiazol-2-yl]-propylamino}-9-fluoro-1,2-dihydro-pyrrolo[3,2,1-ij]quinolin-4-one], the MIC in test [1] is > 8 µg/mL; in test [2], > 8 µg/mL; in test [3], 4 µg/mL (≈ 8.61 µM); in test [4] it was 8 µg/mL (≈ 17.2 µM); in test [5], 4 µg/mL (≈ 8.61 µM).
